Read-outs that look alike come from different tables or passages of the source.
Key:
Format in all cases: in vivo
[1] = test system: blackgrass (Alopecurus myosuroides); assay: Test E pre-/postemergence plant response; details: scale 0 to 100, read-out: Plant response rating, Blackgrass; for pest or weed control at 16 g/ha: 16 g ai/ha; for pest or weed control at 31 g/ha: 31 g ai/ha; for pest or weed control at 62 g/ha: 62 g ai/ha; for pest or weed control at 125 g/ha: 125 g ai/ha
Text: (§1) Seeds of plant species selected from bluegrass (annual bluegrass, Poa annua), blackgrass (Alopecurus myosuroides), canarygrass (Phalaris minor), chickweed (common chickweed, Stellaria media), galium (catchweed bedstraw, Galium aparine), downy bromegrass (Bromus tectorum), field poppy (Papaver rhoeas), field violet (Viola arvensis), green foxtail (Setaria viridis), deadnettle (henbit deadnettle, Lamium amplexicaule), Italian ryegrass (Lolium multiflorum), kochia (Kochia scoparia), lambsquarters (Chenopodium album), oilseed rape (Brassica napus), pigweed (Amaranthus retroflexus), Russian thistle (Salsola iberica), chamomile (scentless chamomile, Matricaria inodora), speedwell (bird's-eye speedwell, Veronica persica), spring barley (Hordeum vulgare), spring wheat (Triticum aestivum), wild buckwheat (Polygonum convolvulus), wild mustard (Sinapis arvensis), wild oat (Avena fatua), wild radish (Raphanus raphanistrum), windgrass (Apera spica-venti), winter barley (Hordeum vulgare), and winter wheat (Triticum aestivum) were planted into a silt loam soil and treated preemergence with test chemicals formulated in a non-phytotoxic solvent mixture which included a surfactant. At the same time, these species were planted in pots containing Redi-Earth® planting medium (Scotts Company, 14111 Scottslawn Road, Marysville, Ohio 43041) comprising spaghnum peat moss, vermiculite, wetting agent and starter nutrients and treated with postemergence applications of the test chemicals formulated in the same manner. Plants ranged in height from 2 to 18 cm (1- to 4-leaf stage).
(§2) Treated plants and controls were maintained in a controlled growth environment for 7 to 21 days after which time all species were compared to controls and visually evaluated. Plant response ratings, summarized in Table E, are based on a scale of 0 to 100 where 0 is no effect and 100 is complete control. A dash (-) response means no test result.

[2] = test system: chamomile (scentless chamomile, Matricaria inodora); assay: Test E pre-/postemergence plant response; details: Tripleurospermum inodorum, post-emergence, Postemergence, scale 0 to 100, read-out: Plant response rating, Chamomile
Text: as §1, §2

[3] = test system: kochia (Kochia scoparia); assay: Test E pre-/postemergence plant response; details: Bassia scoparia, scale 0 to 100, read-out: Plant response rating, Kochia; for pest or weed control at 16 g/ha: 16 g ai/ha; for pest or weed control at 31 g/ha: 31 g ai/ha; for pest or weed control at 62 g/ha: 62 g ai/ha; for pest or weed control at 125 g/ha: 125 g ai/ha
Text: as §1, §2

[4] = test system: oilseed rape (Brassica napus); assay: Test E pre-/postemergence plant response; details: scale 0 to 100, read-out: Plant response rating, Oilseed Rape; for plant injury at 16 g/ha: 16 g ai/ha; for plant injury at 31 g/ha: 31 g ai/ha; for plant injury at 62 g/ha: 62 g ai/ha; for plant injury at 125 g/ha: 125 g ai/ha
Text: as §1, §2

[5] = test system: wild oat (Avena fatua); assay: Test E pre-/postemergence plant response; details: scale 0 to 100, read-out: Plant response rating, Oat, Wild; for pest or weed control at 16 g/ha: 16 g ai/ha; for pest or weed control at 31 g/ha: 31 g ai/ha; for pest or weed control at 62 g/ha: 62 g ai/ha; for pest or weed control at 125 g/ha: 125 g ai/ha
Text: as §1, §2

[6] = test system: Brazilian crabgrass (Digitaria horizontalis); assay: Test F pre-/postemergence plant response; details: Digitaria horizontalis, scale 0 to 100, read-out: Plant response rating, Crabgrass, Brazil
Method in brief: (§3)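 Values are visual ratings, where 100 is complete control and 0 is no effect, given after 14 to 21 days of greenhouse growth. Test chemicals in a non-phytotoxic, surfactant-containing solvent were sprayed on soil just after planting or on emerged seedlings at the 1- to 4-leaf stage.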

[7] = test system: green foxtail (Setaria viridis); assay: Test F pre-/postemergence plant response; details: Setaria viridis, pre-emergence, scale 0 to 100, read-out: Plant response rating, Foxtail, Green
Method in brief: as §3

[8] = test system: johnsongrass (Sorghum halepense); assay: Test F pre-/postemergence plant response; details: Sorghum halepense, pre-emergence, scale 0 to 100, read-out: Plant response rating, Johnsongrass
Method in brief: as §3

[9] = test system: wild poinsettia (Euphorbia heterophylla); assay: Test F pre-/postemergence plant response; details: Euphorbia heterophylla, scale 0 to 100, read-out: Plant response rating, Poinsettia, Wild
Method in brief: as §3

[10] = post-emergence, 8 g ai/ha Postemergence
[11] = post-emergence, 16 g ai/ha Postemergence
[12] = post-emergence, 31 g ai/ha Postemergence
[13] = post-emergence, 62 g ai/ha Postemergence
[14] = post-emergence, 125 g ai/ha Postemergence
[15] = pre-emergence, 8 g ai/ha Preemergence
[16] = pre-emergence, 16 g ai/ha Preemergence
[17] = pre-emergence, 31 g ai/ha Preemergence
[18] = pre-emergence, 125 g ai/ha Preemergence

## FC(F)c1cc(-c2ccccc2Oc2ncc(Cl)cn2)on1 [Compound 53, 5-chloro-2-[2-[3-(difluoromethyl)-5-isoxazolyl]phenoxy]pyrimidine]
[1]; post-emergence, Postemergence
  pest or weed control at 16 g/ha: 0%
  pest or weed control at 31 g/ha: 5%
  pest or weed control at 62 g/ha: 10%
  pest or weed control at 125 g/ha: 25%
[1]; pre-emergence, Preemergence
  pest or weed control at 16 g/ha: 10%
  pest or weed control at 31 g/ha: 10%
  pest or weed control at 62 g/ha: 25%
  pest or weed control at 125 g/ha: 30%
[2]; 16 g ai/ha
  pest or weed control at 16 g/ha: 5%
[2]; 31 g ai/ha
  pest or weed control at 31 g/ha: 5%
[2]; 62 g ai/ha
  pest or weed control at 62 g/ha: 5%
[2]; 125 g ai/ha
  pest or weed control at 125 g/ha: 0%
[3]; post-emergence, Postemergence
  pest or weed control at 16 g/ha: 50%
  pest or weed control at 31 g/ha: 55%
  pest or weed control at 62 g/ha: 70%
  pest or weed control at 125 g/ha: 80%
[3]; pre-emergence, Preemergence
  pest or weed control at 16 g/ha: 10%
  pest or weed control at 31 g/ha: 15%
  pest or weed control at 62 g/ha: 55%
  pest or weed control at 125 g/ha: 100%
[4]; post-emergence, Postemergence
  plant injury at 16 g/ha: 70%
  plant injury at 31 g/ha: 75%
  plant injury at 62 g/ha: 80%
  plant injury at 125 g/ha: 80%
[4]; pre-emergence, Preemergence
  plant injury at 16 g/ha: 50%
  plant injury at 31 g/ha: 75%
  plant injury at 62 g/ha: 100%
  plant injury at 125 g/ha: 100%
[5]; post-emergence, Postemergence
  pest or weed control at 16 g/ha: 5%
  pest or weed control at 31 g/ha: 5%
  pest or weed control at 62 g/ha: 10%
  pest or weed control at 125 g/ha: 25%
[5]; pre-emergence, Preemergence
  pest or weed control at 16 g/ha: 0%
  pest or weed control at 31 g/ha: 0%
  pest or weed control at 62 g/ha: 10%
  pest or weed control at 125 g/ha: 25%
[6]; [10]
  pest or weed control at 8 g/ha: 0%
[6]; [11]
  pest or weed control at 16 g/ha: 10%
[6]; [12]
  pest or weed control at 31 g/ha: 15%
[6]; [13]
  pest or weed control at 62 g/ha: 20%
[6]; [14]
  pest or weed control at 125 g/ha: 20%
[6]; [15]
  pest or weed control at 8 g/ha: 0%
[6]; [16]
  pest or weed control at 16 g/ha: 0%
[6]; [17]
  pest or weed control at 31 g/ha: 5%
[6]; pre-emergence, 62 g ai/ha Preemergence
  pest or weed control at 62 g/ha: 85%
[6]; [18]
  pest or weed control at 125 g/ha: 90%
[7]; 8 g ai/ha Preemergence
  pest or weed control at 8 g/ha: 0%
[7]; 16 g ai/ha, Preemergence
  pest or weed control at 16 g/ha: 0%
[7]; 31 g ai/ha, Preemergence
  pest or weed control at 31 g/ha: 0%
[7]; 125 g ai/ha, Preemergence
  pest or weed control at 125 g/ha: 90%
[7]; Preemergence
  pest or weed control at 62 g/ha: 20%
[8]; 8 g ai/ha Preemergence
  pest or weed control at 8 g/ha: 0%
[8]; 16 g ai/ha Preemergence
  pest or weed control at 16 g/ha: 0%
[8]; 31 g ai/ha Preemergence
  pest or weed control at 31 g/ha: 0%
[8]; 125 g ai/ha Preemergence
  pest or weed control at 125 g/ha: 5%
[8]; Preemergence
  pest or weed control at 62 g/ha: 0%
[9]; [10]
  pest or weed control at 8 g/ha: 50%
[9]; [11]
  pest or weed control at 16 g/ha: 50%
[9]; [12]
  pest or weed control at 31 g/ha: 60%
[9]; [13]
  pest or weed control at 62 g/ha: 70%
[9]; [14]
  pest or weed control at 125 g/ha: 70%
[9]; [15]
  pest or weed control at 8 g/ha: 0%
[9]; [16]
  pest or weed control at 16 g/ha: 0%
[9]; [17]
  pest or weed control at 31 g/ha: 0%
[9]; [18]
  pest or weed control at 125 g/ha: 0%
[9]; pre-emergence, Preemergence
  pest or weed control at 62 g/ha: 0%
